Data as given in ChEMBL document CHEMBL3390836, “Mannich- and LedererManasse-based analogues of the natural product S-(+)-curcuphenol as cancer proliferation and migration inhibitors” (Medchemcomm, 2012).

What was measured:
MCF7 = experiment: Growth inhibition of human MCF7 cells after 72 hrs by MTT assay; type: functional, cell-based; details: MCF7, 72 h
MDA-MB-231 [1] = experiment: Growth inhibition of human MDA-MB-231 cells after 72 hrs by MTT assay; type: functional, cell-based; details: MDA-MB-231, 72 h
MDA-MB-231 [2] = experiment: Cytotoxicity against human MDA-MB-231 cells assessed as growth inhibition after 24 hrs by MTT assay; type: cell-based; details: MDA-MB-231, 24 h
MDA-MB-231 [3] = experiment: Antimigratory activity against human MDA-MB-231 cells after 24 hrs by wound-healing assay; type: functional, cell-based; details: MDA-MB-231, 24 h

IC50 (MCF7) [µM] | IC50 (MDA-MB-231 [1]) [µM] | IC50 (MDA-MB-231 [3]) [µM] | SMILES | IC50 (MDA-MB-231 [2]) [µM]
10.3 | 14.9 | > 20 | CCOC(CCNCc1c(C)ccc([C@@H](C)CCC=C(C)C)c1O)OCC | > 20
13.2 | 11.3 | 3.1 | CCOC(CCN1COc2c([C@@H](C)CCC=C(C)C)ccc(C)c2C1)OCC | > 20
